These results are taken from patent publication US5849326A, “Method for treating neuronal diseases via administration of 2-acylaminopropanol derivatives” (Seikagaku Corporation, priority 1993, dated 1998).

Each structure is given as a SMILES string. Where a chain is given by its changes, count along the chain named.

The subject of series [1] is ICR mice. The series is described as follows: General toxicity, continuous 10-day intraperitoneal administration. The class given is in vivo. The note with it: 100 mg/kg/day intraperitoneally for 10 days.
Series [2] deals with neurites. Particulars: J. Biochem., vol. 110, pp. 96-103, 1991; cited from earlier work.
The test system of series [3] is rat cerebral cortex neurocytes. The series is described as follows: Synapse formation measured as frequency of intracellular Ca2+ fluctuation. The note with it: FIG. 4. The series is classed as cell-based. An excerpt: Further, as a method of measuring synapse formation relatively simply and easily, there has been developed a multipoint observation system of Ca^2+ in neurocytes using Fura-2, and it has been confirmed that the number of synapse formation is in direct proportion to frequency of intracellular Ca^2+ fluctuation in synchronization therewith (Br. J. Pharmacol., 89, 191-198, 1986; Neurosci. Lett., 78, 69-74, 1987). We investigated influences of L-threo-FDMP and D-threo-PDMP exerted on synapse formation between rat cerebral cortex neurocytes by using this method, and the results are shown below.

The subject of series [4] is explants. The series is described as follows: Neurite-extending activity in explants (Example 6). The series is classed as cell-based. Particulars: 5 μM to 15 μM, cultured for 40 hours, FIG. 5. The procedure:
1.6×10^5 cells/well of explants were sowed in a plate with 24 wells containing a DMEM medium. […] After the mixture was cultured for 40 hours, the resulting culture was fixed and then dyed with Coomassie, and nervous fibers extended to have a length which was longer than a diameter of […] were counted.

Series [5] relates to primary cultured rat cerebral neurocytes. The series is described as follows: Ganglioside content (ganglioside-binding sialic acid) of primary cultured neurocytes. The class given is cell-based. The procedure: Rat fetuses at the 18th day of pregnancy were taken out, and forebrain base portions of the fetuses were extracted aseptically and cut into small pieces by scissors. After the pieces were treated with papain (in a phosphate buffer containing 0.02% L-cysteine containing 180 U papain, 0.02% bovine serum albumin and 0.5% glucose, pH 7.4, at 37° C. for 30 minutes), they were washed with a mixed solution (DF medium) of 1:1 of a Dulbecco modified Eagle's medium and a Ham's F12 medium and suspended in a DF medium containing 5% bovine fetal serum and 5% equine serum. This neurocyte suspension was charged into a culture plate with 24 wells (Falcon, Primaria) in an amount of 1×10^6 cells/well. […] After completion of the culture, the cells in the respective wells were washed with a phosphate buffer and recovered by rubber policeman. Further, a ganglioside fraction was extracted by adding chloroform/methanol/water (1:2:0.8) and shaking the mixture for 5 minutes. […] The no addition group (control) which was defined as 100% was compared with the test groups, and the results are shown in Table 1.

Series [6] relates to serine palmitoyltransferase. The series is described as follows: Enzyme activity in treated cerebral cortex culture: serine palmitoyltransferase. The series is classed as cell-based, rat. The note with it: culture treated with 15 μM for 40 hours. The protocol: (§1) After the mixture was cultured for 40 hours, the resulting culture was harvested and pulverized in a homogenized buffer (50 mM Hepes, 0.32M sucrose) by using a chip type sonicator to prepare an enzyme source.
1.5 mM palmitoyl CoA (coenzyme A) and 0.1 mM ^14 C serine (8.3×10^5 cpm) were reacted in the presence of 0.5 mM pyridoxalphosphoric acid. After 3-keto-sphingosine which was a reaction product was extracted, the extract was concentrated and evaporated to dryness, and its radioactivity was counted.

The target of series [7] is T1, GlcCer (glucosylceramide) synthase (Rattus norvegicus, UniProt Q9R0E0).
T1 construct: primary culture of cerebral cortex tissue specimens of Wister albino rats; endogenous in cells; host or cells: primary culture of rat (Wistar) cerebral cortex, sonicated after 40 h with compound
T1 sequence (Q9R0E0 1-394): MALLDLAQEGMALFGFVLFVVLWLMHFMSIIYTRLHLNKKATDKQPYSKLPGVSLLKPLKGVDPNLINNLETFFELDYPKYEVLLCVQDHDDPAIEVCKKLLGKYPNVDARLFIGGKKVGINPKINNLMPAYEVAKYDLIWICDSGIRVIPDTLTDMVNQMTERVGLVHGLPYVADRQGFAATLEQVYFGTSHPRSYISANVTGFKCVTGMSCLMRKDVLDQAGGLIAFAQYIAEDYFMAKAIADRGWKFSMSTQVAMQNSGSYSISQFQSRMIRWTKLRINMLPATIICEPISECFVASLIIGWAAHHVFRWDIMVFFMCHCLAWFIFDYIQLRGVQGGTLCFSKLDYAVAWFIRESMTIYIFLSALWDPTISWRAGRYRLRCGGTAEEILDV
The series is described as follows: Enzyme activity in treated cerebral cortex culture: GlcCer synthase. The class given is cell-based. Particulars: culture treated with 15 μM for 40 hours. The procedure:
as §1
After ^3 H-GlcCer which was a reaction product was extracted with t-butyl methyl ether, the extract was concentrated and evaporated to dryness, and its radioactivity was measured.

The subject of series [8] is GM3 synthase. The series is described as follows: Enzyme activity in treated cerebral cortex culture: GM3 synthase. The class given is cell-based, rat. Particulars: culture treated with 15 μM for 40 hours. The procedure: as §1
After the mixture containing a reaction product was developed by a reverse phase thin layer plate, a portion corresponding to the reaction product was scratched off, and its radioactivity was counted.

Series [9] has as its target T2, glucosylceramide biosynthesizing enzyme (Mus musculus, UniProt O88693).
T2 sequence (O88693 1-394): T1 sequence (Q9R0E0 1-394) with E96D, R164K, K249R, A377T
Particulars: J. Lipid. Res., vol. 28, pp. 565-571, 1987; cited from earlier work.

The test system of series [10] is LacCer (lactosylceramide) synthase. The series is described as follows: Enzyme activity in treated cerebral cortex culture: LacCer synthase. The class given is cell-based, rat. The note with it: culture treated with 15 μM for 40 hours. The procedure: as §1
GlcCer as an acceptor substrate was reacted with 0.315mM UDP (uridine diphosphate)-^3 H galactose (2.7×10^8 cpm) as a donor substrate. After the mixture containing ^3 H-LacCer which was a reaction product was developed by a silica gel thin layer plate, a portion corresponding to the reaction product was scratched off, and its radioactivity was counted.

For series [11], the system named is acyl-CoA: sphingosine N-acyltransferase. The series is described as follows: Enzyme activity in treated cerebral cortex culture: acyl-CoA: sphingosine N-acyltransferase. The class given is cell-based, rat. Particulars: culture treated with 15 μM for 40 hours. The procedure: as §1
0.25 mM sphingosine and 0.45 mM ^14 C palmitoyl CoA (8.3×10^5cpm) were reacted in the presence of ATP (adenosine 5'-triphosphate). After ceramide which was a reaction product was subjected to solvent extraction, the extract was concentrated and evaporated to dryness, and its radioactivity was counted.

The subject of series [12] is GSL. Particulars: J. Lipid. Res., vol. 28, pp. 565-571, 1987; cited from earlier work.
Series [13] has as its system GD3 synthase. The series is described as follows: Enzyme activity in treated cerebral cortex culture: GD3 synthase. The note with it: culture treated with 15 μM for 40 hours. The series is classed as cell-based, rat. The procedure: as §1
GM3 as an acceptor substrate was reacted with 30 mM CMP-^14 C sialic acid (2.88×10^6 cpm) as a donor substrate. After the mixture containing a reaction product was developed by a reverse phase thin layer plate, a portion corresponding to the reaction product was scratched off, and its radioactivity was counted.

For series [14], the system named is rats with spacial recognition disorder caused by repeated cerebral ischemia. The series is described as follows: Maze radiated in 8 directions after repeated cerebral ischemia (Example 9). The class given is in vivo. Particulars: 40 mg/kg i.p. twice a day for 6 days. The protocol: Wister albino male rats (weight: 250 to 280 g) were used, and training of a task of a maze which was radiated in 8 directions was conducted once a day to make the rats acquire spacial recognition. The rats which had acquired spacial recognition were subjected to cauterization of vertebral arteries and operation of peeling common carotid arteries according to the method of Pulsinelli, Brierly, et al. (Stroke, vol. 10, p. 267, 1979). […] The ischemia treatment was carried out by repeating ischemia twice, i.e., ligating common carotid arteries for 10 minutes by using clips without anesthesia and further ligating them for 10 minutes after 1 hour from restarting of blood flow. Retention trial was carried out one week after the ischemia treatment, and the results were represented by the number of correct choices among first 8 choices, whether all of 8 baits were taken or not, or the number of errors within an observation period a maximum of which was 10 minutes. Further, a pharmaceutical effect was evaluated by 3 ranks, i.e., remarkably effective (showing that the number of correct choices is 7 or more and the number of errors is 1 or less), effective (showing that the number of correct choices is 7 or more and the number of errors is 2 or 3) and ineffective (showing that the number of errors is 4 or more), and represented as an improvement rate thereof.
In the above experiment, examined was influence of continuous administration of 40 mg/kg of PDMP (i.p.) twice a day for 6 days started after 24 hours from the ischemia treatment, which was exerted on the spacial recognition disorder one week after the repeated cerebral ischemia, in the task of the maze which was radiated in 8 directions using the rats.

Setting [15] is: started 24 hours after ischemia, retention trial one week after ischemia, FIG. 7.

For the compound `CCCCCCCCCC(=O)N[C@H](CN1CCOCC1)[C@H](O)c1ccccc1` (relative stereo) [DL-threo-PDMP, 1-phenyl-2-decanoylamino-3-morpholino-1-propanol], the “decrease in weight / decrease in neutrophile, acidocyte due to suppression of bone marrow” value in [1] (in Myrj 52) is listed as “neither decrease in weight nor decrease in neutrophile, acidocyte, etc. due to suppression of bone marrow was observed”. Besides, the “abnormality on observation for 3 months” value in [1] (observation for 3 months) is reported as “no abnormality was observed”.
For `CCCCCCCCCC(=O)N[C@H](CN1CCOCC1)[C@H](O)c1ccccc1` [D-threo-PDMP, 1-phenyl-2-decanoylamino-3-morpholino-1-propanol], the extension of neurites entry in series [2] is recorded as “extension of neurites is suppressed”. Besides, the “number of synapse formation (frequency of intracellular Ca2+ fluctuation)” value in series [3] is “suppressedly acted on synapse formation”. In [4], the “effect on neurite extension” value is listed as “moderate suppression of neurite extension”. Besides, the “ganglioside level as compared with that of the control” value in series [5] (20 μM, 3 days) was “decrease in the ganglioside level”. The same compound registered an activity at 20 µM in series [5] (Rattus norvegicus, 72 h, culture for 3 days, control defined as 100%) of 63.4%. Also, in [6], the “Accelerating activity when enzyme activity of control is defined as 100%: Serine palmitoyltransferase” value is given as “no change in the activities was observed”. In series [7], the “Accelerating activity when enzyme activity of control is defined as 100%: GlcCer-synthase” value is given as “no change in the activities was observed”. Also, in series [8], the “Accelerating activity when enzyme activity of control is defined as 100%: GM3 synthase” value was “no change in the activities was observed”. For the same compound, in [9], the “inhibition of glucosylceramide biosynthesizing enzyme” value was “specifically inhibits a glucosylceramide biosynthesizing enzyme”. In series [10], the “Accelerating activity when enzyme activity of control is defined as 100%: LacCer synthase” value was “no change in the activities was observed”. The “Accelerating activity when enzyme activity of control is defined as 100%: Acyl-CoA: sphigosine N-acyltransferase” value in series [11] is given as “no change in the activities was observed”. The “intracellular content of all GSL” value in series [12] is recorded as “extremely decreases an intracellular content of all GSL”. Besides, the “Accelerating activity when enzyme activity of control is defined as 100%: GD3 synthase” value in series [13] is on record as “no change in the activities was observed”.
Turning to `CCCCCCCCCC(=O)NC(CN1CCOCC1)C(O)c1ccccc1` (stereo not drawn) [PDMP, 1-phenyl-2-decanoylamino-3-morpholino-1-propanol], in series [14] (setting [15]), the “number of the correct choices versus vehicle group” value was “increase of the number of the correct choices” and the “number of the errors versus vehicle group” value is “decrease of the number of the errors”. In [14] (4/8 rats, FIG. 8), the “improvement rate: rats in the remarkably effective rank” value turned out to be 50%.
